Laboratory results: ChEMBL document CHEMBL1134059, “Synthesis and antifungal activities of novel 1,3-beta-D-glucan synthase inhibitors. Part 2” (Bioorg Med Chem Lett, 2001)
pIC50: −log10 of the molar value. ≈ marks a conversion by molar mass, not a printed value. Numbered stars: 1 amine (or outer) side, 2 acyl side, 3 side chain; on linkers, the order of the positions; unused ones are H or OH. Bridge positions count the residues as written; N and C are the ends. Square brackets hold non-standard residues; d marks the D form. Peptide text beside a SMILES is read from it. * marks the point of attachment. pTerphenylCO(4''-OnC5H11) = CCCCCOc1ccc(-c2ccc(-c3ccc(C(=O)*)cc3)cc2)cc1; Orn(4R-OH,5R-OH) = O=C([C@H](C[C@@H](O)[C@@H](O)N[*:3])N[*:1])[*:2]; hTyr(3S-OH,4S-OH) = N[C@H](C(=O)O)[C@H](O)[C@@H](O)c1ccc(O)cc1; Pro(3S-OH,4S-Me) = C[C@H]1CN[C@H](C(=O)O)[C@H]1O; Gln(3R-OH) = NC(=O)C[C@@H](O)[C@H](N)C(=O)O; X1 = CCCCCCCCCCCCC[C@H](CC(=O)[*:1])O[*:2]; Pro(3S-OH) = O=C(O)[C@H]1NCC[C@@H]1O; d(aThr) = C[C@@H](O)[C@@H](N)C(=O)O; Hyp = O=C(O)[C@@H]1C[C@@H](O)CN1; Orn = NCCC[C@H](N)C(=O)O

Columns and labels:
Candida albicans [1] = assay: In vitro antifungal activity against Candida albicans CY1002; type: functional, organism-based
Beta-1,3-glucan synthase = Beta-1,3-glucan synthase (Candida albicans, UniProt O13428); assay: In vitro inhibitory activity against Beta glucan synthase
Mus musculus [2] = assay: In vivo efficacy against Candida albicans CY1002 5E6 cells for systemic candidiasis in mice after iv treatment on day 7; type: functional; details: CY1002 5E6, iv, 168 h
Mus musculus [3] = assay: In vivo efficacy against Aspergillus fumigatus CF1083 1E4 conidia/g for pulmonary aspergillosis in mice after iv treatment on day 14; type: functional; details: 336 h
Mus musculus [4] = species: Mus musculus; assay: Hepatotoxicity using inclusion-body formation test in hepatocytes of mice; type: functional, Hepatocyte
Candida albicans [5] = assay: In vitro antifungal activity against Candida albicans CY1002 using 80 percent serum; type: functional, organism-based
Candida albicans [6] = assay: Antifungal activity against Candida albicans ATCC 48130; type: functional
Nakaseomyces glabratus = assay: Antifungal activity against Candida glabrata ATCC 2001; type: functional
Lomentospora prolificans = assay: Antifungal activity against Scedosporium prolificans ATCC 20054; type: functional
Candida tropicalis = assay: Antifungal activity against Candida tropicalis ATCC 13803; type: functional
Pichia kudriavzevii = assay: Antifungal activity against Candida krusei ATCC 20579; type: functional
Candida albicans [7] = assay: Antifungal activity against Candida albicans KB fluconazole resistant strain.; type: functional
Scedosporium boydii = assay: Antifungal activity against Scedosporium […] IFM40731N.; type: functional
Aspergillus fumigatus = assay: Antifungal activity against Aspergillus fumigatus MTU06002; type: functional

Sequence of Beta-1,3-glucan synthase (O13428 whole entry): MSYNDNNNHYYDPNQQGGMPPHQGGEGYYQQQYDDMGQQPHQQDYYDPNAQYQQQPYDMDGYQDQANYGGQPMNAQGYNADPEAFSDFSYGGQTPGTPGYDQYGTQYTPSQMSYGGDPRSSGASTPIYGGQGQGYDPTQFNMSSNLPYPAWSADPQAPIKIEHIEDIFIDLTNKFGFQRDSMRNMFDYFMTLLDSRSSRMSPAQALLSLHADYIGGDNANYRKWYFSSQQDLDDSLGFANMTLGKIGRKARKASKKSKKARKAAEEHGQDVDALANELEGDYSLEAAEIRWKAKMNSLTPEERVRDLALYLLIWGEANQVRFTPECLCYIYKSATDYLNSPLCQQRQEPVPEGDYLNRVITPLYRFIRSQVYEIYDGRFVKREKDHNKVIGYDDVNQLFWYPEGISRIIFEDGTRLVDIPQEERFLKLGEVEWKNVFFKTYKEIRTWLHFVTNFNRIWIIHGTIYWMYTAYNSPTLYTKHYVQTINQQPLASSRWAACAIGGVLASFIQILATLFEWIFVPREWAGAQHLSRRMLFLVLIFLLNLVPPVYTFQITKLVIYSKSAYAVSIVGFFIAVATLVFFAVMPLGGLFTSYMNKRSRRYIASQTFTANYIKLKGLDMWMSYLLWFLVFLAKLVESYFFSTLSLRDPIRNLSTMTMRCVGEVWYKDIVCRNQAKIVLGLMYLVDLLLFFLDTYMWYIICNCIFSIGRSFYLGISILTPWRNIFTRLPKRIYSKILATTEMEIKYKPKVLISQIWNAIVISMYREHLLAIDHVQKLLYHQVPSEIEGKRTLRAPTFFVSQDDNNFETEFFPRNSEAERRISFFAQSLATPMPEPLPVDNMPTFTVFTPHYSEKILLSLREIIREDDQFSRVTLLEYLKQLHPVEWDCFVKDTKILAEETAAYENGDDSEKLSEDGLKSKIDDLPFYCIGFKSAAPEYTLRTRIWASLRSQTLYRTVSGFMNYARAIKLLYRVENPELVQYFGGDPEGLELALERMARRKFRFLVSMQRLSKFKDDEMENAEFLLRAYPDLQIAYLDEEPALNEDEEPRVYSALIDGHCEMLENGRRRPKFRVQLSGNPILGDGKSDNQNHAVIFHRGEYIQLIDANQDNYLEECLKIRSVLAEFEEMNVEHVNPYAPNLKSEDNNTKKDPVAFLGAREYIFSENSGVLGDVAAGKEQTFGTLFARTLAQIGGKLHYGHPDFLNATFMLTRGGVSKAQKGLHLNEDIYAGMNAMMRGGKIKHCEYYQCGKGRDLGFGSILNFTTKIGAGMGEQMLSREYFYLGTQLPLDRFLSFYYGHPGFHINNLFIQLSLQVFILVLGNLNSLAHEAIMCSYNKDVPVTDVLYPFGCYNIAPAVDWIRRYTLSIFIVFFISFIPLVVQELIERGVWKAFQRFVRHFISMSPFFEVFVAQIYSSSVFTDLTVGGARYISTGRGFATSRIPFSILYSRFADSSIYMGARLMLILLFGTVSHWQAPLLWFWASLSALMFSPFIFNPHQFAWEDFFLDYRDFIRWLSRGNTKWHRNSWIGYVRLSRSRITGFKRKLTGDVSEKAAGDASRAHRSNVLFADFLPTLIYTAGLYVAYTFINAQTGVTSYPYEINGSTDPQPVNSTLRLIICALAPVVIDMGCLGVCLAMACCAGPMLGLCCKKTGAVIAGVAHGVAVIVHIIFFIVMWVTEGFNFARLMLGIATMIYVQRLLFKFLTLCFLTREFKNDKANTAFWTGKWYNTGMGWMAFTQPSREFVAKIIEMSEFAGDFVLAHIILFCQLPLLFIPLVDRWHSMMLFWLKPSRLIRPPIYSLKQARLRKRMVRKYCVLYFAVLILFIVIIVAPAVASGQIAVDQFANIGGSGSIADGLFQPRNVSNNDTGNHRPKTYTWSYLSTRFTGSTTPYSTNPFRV

## CCCCCCCCCCCCC[C@@H]1CC(=O)N[C@H]([C@@H](C)O)C(=O)N[C@H](C)C(=O)N[C@@H](Cc2ccc(O)cc2)C(=O)N[C@@H](C(C)C)C(=O)N2C[C@H](O)C[C@H]2C(=O)N[C@H]([C@@H](C)O)C(=O)N[C@@H]([C@@H](C)O)C(=O)N2CC[C@H](O)[C@H]2C(=O)N[C@@H]([C@H](O)CC(N)=O)C(=O)NCC(=O)N[C@H]([C@@H](C)O)C(=O)N[C@@H](CCCN(CCN)CCN)C(=O)O1
Candida albicans [1]
  IC50: 0.1 µg/mL (≈ 0.0617 µM)
Beta-1,3-glucan synthase
  pIC50: 8.85
Mus musculus [2]
  ED50: 0.05 mg/kg
Mus musculus [3]
  ED50: 13.3 mg/kg
Mus musculus [4]
  Observed at: 10 µg/mL
Candida albicans [5]
  IC50: 0.42 µg/mL (≈ 0.259 µM)

## CCCCCCCCCCCCC[C@@H]1CC(=O)N[C@H]([C@@H](C)O)C(=O)N[C@H](C)C(=O)N[C@@H](Cc2ccc(O)cc2)C(=O)N[C@@H](C(C)C)C(=O)N2C[C@H](O)C[C@H]2C(=O)N[C@H]([C@@H](C)O)C(=O)N[C@@H]([C@@H](C)O)C(=O)N2CC[C@H](O)[C@H]2C(=O)N[C@@H]([C@H](O)CC(N)=O)C(=O)NCC(=O)N[C@H]([C@@H](C)O)C(=O)N[C@@H](CCCNC(=O)[C@H](N)CCCN)C(=O)O1
Candida albicans [1]
  IC50: 0.12 µg/mL (≈ 0.0728 µM)
Beta-1,3-glucan synthase
  pIC50: 8.44
Mus musculus [2]
  ED50: 0.1 mg/kg
Mus musculus [4]
  Observed at: 30 µg/mL
Candida albicans [5]
  IC50: 0.33 µg/mL (≈ 0.2 µM)

## CCCCCOc1ccc(-c2ccc(-c3ccc(C(=O)N[C@@H]4C[C@@H](O)[C@@H](O)NC(=O)C5[C@@H](OC)[C@@H](OC)CN5C(=O)[C@H]([C@@H](C)O)NC(=O)[C@H]([C@H](O)[C@@H](O)c5ccc(O)cc5)NC(=O)[C@@H]5C[C@@H](O)CN5C(=O)[C@H]([C@@H](C)O)NC4=O)cc3)cc2)cc1 (stereo partly specified)
Beta-1,3-glucan synthase
  pIC50: 7.74

## CCCCCCCCCCCCC[C@@H]1CC(=O)N[C@H]([C@@H](C)O)C(=O)N[C@H](C)C(=O)N[C@@H](Cc2ccc(O)cc2)C(=O)N[C@@H](C(C)C)C(=O)N2C[C@H](O)C[C@H]2C(=O)N[C@H]([C@@H](C)O)C(=O)N[C@@H]([C@@H](C)O)C(=O)N2CC[C@H](O)[C@H]2C(=O)N[C@@H]([C@H](O)CC(N)=O)C(=O)NCC(=O)N[C@H]([C@@H](C)O)C(=O)N[C@@H](CCCN(CCCN)C(=O)[C@H](CCCN)N(CCN)CCN)C(=O)O1
Candida albicans [1]
  IC50: 0.45 µg/mL (≈ 0.251 µM)
Candida albicans [6]
  MIC: 0.41 µg/mL (≈ 0.229 µM)
Nakaseomyces glabratus
  MIC: 1 µg/mL (≈ 0.558 µM)
Beta-1,3-glucan synthase
  pIC50: 9.55
Mus musculus [2]
  ED50: 0.08 mg/kg
Mus musculus [3]
  ED50: 8.6 mg/kg
Lomentospora prolificans
  MIC: 0.38 µg/mL (≈ 0.212 µM)
Candida tropicalis
  MIC: 0.63 µg/mL (≈ 0.352 µM)
Mus musculus [4]
  Observed at: 100 µg/mL
Pichia kudriavzevii
  MIC: 0.31 µg/mL (≈ 0.173 µM)
Candida albicans [7]
  MIC: 0.35 µg/mL (≈ 0.195 µM)
Scedosporium boydii
  MIC: 0.35 µg/mL (≈ 0.195 µM)
Aspergillus fumigatus
  MIC: 0.37 µg/mL (≈ 0.207 µM)
Candida albicans [5]
  IC50: 0.31 µg/mL (≈ 0.173 µM)

## CCCCCOc1ccc(-c2ccc(-c3ccc(C(=O)N[C@H]4C[C@@H](O)[C@@H](O)NC(=O)[C@@H]5[C@@H](O)[C@@H](C)CN5C(=O)[C@H]([C@@H](C)O)NC(=O)[C@H]([C@H](O)[C@@H](O)c5ccc(O)cc5)NC(=O)[C@@H]5C[C@@H](O)CN5C(=O)[C@H]([C@@H](C)O)NC4=O)cc3)cc2)cc1 ({pTerphenylCO(4''-OnC5H11)}-[Orn(4R-OH,5R-OH)]T[Hyp][hTyr(3S-OH,4S-OH)]T[Pro(3S-OH,4S-Me)]; lactam 1-C) [listing 1 of 2 here]
Candida albicans [1]
  IC50: 0.014 µg/mL (≈ 0.0123 µM)
Candida albicans [5]
  IC50: 0.55 µg/mL (≈ 0.482 µM)

## CCCCCOc1ccc(-c2ccc(-c3ccc(C(=O)N[C@H]4C[C@@H](O)[C@@H](O)NC(=O)[C@@H]5[C@@H](O)[C@@H](C)CN5C(=O)[C@H]([C@@H](C)O)NC(=O)[C@H]([C@H](O)[C@@H](O)c5ccc(O)cc5)NC(=O)[C@@H]5C[C@@H](O)CN5C(=O)[C@H]([C@@H](C)O)NC4=O)cc3)cc2)cc1 ({pTerphenylCO(4''-OnC5H11)}-[Orn(4R-OH,5R-OH)]T[Hyp][hTyr(3S-OH,4S-OH)]T[Pro(3S-OH,4S-Me)]; lactam 1-C) [listing 2 of 2 here]
Mus musculus [2]
  ED50: 0.22 mg/kg
Mus musculus [4]
  Observed at: 1 µg/mL

## CCCCCCCCCCCCC[C@@H]1CC(=O)N[C@H]([C@@H](C)O)C(=O)N[C@H](C)C(=O)N[C@@H](Cc2ccc(O)cc2)C(=O)N[C@@H](C(C)C)C(=O)N2C[C@H](O)C[C@H]2C(=O)N[C@H]([C@@H](C)O)C(=O)N[C@@H]([C@@H](C)O)C(=O)N2CC[C@H](O)[C@H]2C(=O)N[C@@H]([C@H](O)CC(N)=O)C(=O)NCC(=O)N[C@H]([C@@H](C)O)C(=O)N[C@@H](CCCN)C(=O)O1 [FR-901469] ([d(aThr)][dA]YV[Hyp][d(aThr)]T[Pro(3S-OH)][Gln(3R-OH)]G[d(aThr)][Orn]; linker N-C via X1)
Candida albicans [1]
  IC50: 0.07 µg/mL (≈ 0.0456 µM)
Beta-1,3-glucan synthase
  pIC50: 8.07
Mus musculus [2]
  ED50: 0.22 mg/kg
Mus musculus [3]
  ED50: > 15 mg/kg
Mus musculus [4]
  Observed at: 10 µg/mL
Candida albicans [5]
  IC50: 0.54 µg/mL (≈ 0.352 µM)
